Source: US20080171716A1, “NUCLEIC ACID MODULATION OF TOLL-LIKE RECEPTOR-MEDIATED IMMUNE STIMULATION” (Protiva Biotherapeutics, Inc., priority 2006, published 2008)
m = 2'-O-methyl; r = 2'-OH (RNA)

Target: T1, TLR9 (Homo sapiens, UniProt Q9NR96)
T1 construct: these experiments were repeated in human PBMC cultures; endogenous in cells; host or cells: primary human PBMCs
T1 sequence (Q9NR96 26-1032): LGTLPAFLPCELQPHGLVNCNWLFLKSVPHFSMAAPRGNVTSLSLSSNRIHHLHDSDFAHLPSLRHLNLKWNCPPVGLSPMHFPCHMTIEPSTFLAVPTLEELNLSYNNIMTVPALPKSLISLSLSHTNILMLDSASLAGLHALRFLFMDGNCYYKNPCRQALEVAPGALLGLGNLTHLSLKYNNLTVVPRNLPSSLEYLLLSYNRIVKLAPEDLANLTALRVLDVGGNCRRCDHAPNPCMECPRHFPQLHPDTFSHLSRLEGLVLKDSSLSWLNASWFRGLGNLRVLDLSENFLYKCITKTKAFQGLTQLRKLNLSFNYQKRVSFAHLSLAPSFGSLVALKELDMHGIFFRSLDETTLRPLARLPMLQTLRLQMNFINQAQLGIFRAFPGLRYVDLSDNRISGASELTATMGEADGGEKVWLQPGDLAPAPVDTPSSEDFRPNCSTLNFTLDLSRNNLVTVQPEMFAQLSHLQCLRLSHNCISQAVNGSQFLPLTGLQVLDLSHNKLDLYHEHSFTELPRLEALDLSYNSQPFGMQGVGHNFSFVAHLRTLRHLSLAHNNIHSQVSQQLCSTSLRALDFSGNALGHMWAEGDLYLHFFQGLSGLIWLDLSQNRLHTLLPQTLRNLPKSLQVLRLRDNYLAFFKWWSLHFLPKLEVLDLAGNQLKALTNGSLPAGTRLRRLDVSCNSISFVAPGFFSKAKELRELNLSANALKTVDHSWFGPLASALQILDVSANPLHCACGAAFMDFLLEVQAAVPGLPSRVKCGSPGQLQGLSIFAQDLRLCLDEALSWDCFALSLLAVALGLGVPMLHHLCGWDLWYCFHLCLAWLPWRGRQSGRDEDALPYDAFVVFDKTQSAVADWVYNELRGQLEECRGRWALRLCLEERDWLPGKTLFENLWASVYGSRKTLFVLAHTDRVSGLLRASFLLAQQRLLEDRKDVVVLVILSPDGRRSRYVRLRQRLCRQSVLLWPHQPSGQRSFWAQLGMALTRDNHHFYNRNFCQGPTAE
Assay: CpG ODN (TLR9 agonist)-induced cytokine production in human PBMCs
Type: cell-based
Method: All RNA molecules used in this study were heated at 90° C. for 3 min. and then placed at 37° C. for 60 min. Non-denaturing PAGE analysis on a 20% polyacrylamide gel was performed to confirm that ssRNA molecules were intact and that no duplexes had formed upon heating. The RNA molecules were encapsulated in a SNALP formulation comprising PEG-cDMA:DLinDMA:cholesterol:DSPC in a 2:40:48:10 mol % ratio (2:40 SNALP), prepared using a syringe press process.
Fresh human peripheral blood mononuclear cells (PBMCs) were isolated and seeded at about 3×10^5 cells/well in a total volume of 180 μl. Next, 20 μl of the appropriate SNALP diluted in PBS or 10 μl of naked TLR agonist were added to the PBMCs. For time course experiments, PBMCs were pretreated with UmodS ssRNA or a control and the appropriate naked TLR agonist was added at 0, 0.5, or 2 hours after pretreatment. When the SNALP and naked TLR agonist were added separately, the SNALP was added first followed by the naked TLR agonist. At t=24 hr., the cell supernatant was harvested and IFN-α and/or IL-6 levels were determined using ELISA.
Lipid Encapsulation of RNA and ODN. RNA or ODN were encapsulated in liposomes by a process of spontaneous vesicle formation as described in Judge et al., supra, and Jeffs et al., Pharm. […]
Cytokine ELISA. All cytokines were quantified using sandwich ELISA kits according to the manufacturer's instructions. […]

Substance: Luc UmodS: Luc sense strand ssRNA with 2′OMe at uridines: GAmUmUAmUGmUCCGGmUmUAmUGmUAUU (sense GAUUAUGUCCGGUUAUGUAUU; sugars from the 5' end rrmmrmrmrrrrmmrmrmrrr, backbone not given here)
- IL-6 levels induced by naked ODN2006 (TLR9 agonist, phosphorothioate CpG Type B) (human PBMCs pretreated with SNALP-encapsulated ssRNA): no reduction
- level of IFN-α induced by naked ODN2216 (TLR9 agonist, phosphorothioate CpG Type A) (human PBMCs, SNALP-encapsulated ssRNA plus naked ODN): increased
